Source: PMC9014412 (Journal of medicinal chemistry, 2022)
Where two headings read alike, the source gives them in different places.

Assays:
HDAC3 = HDAC3 (Homo sapiens, UniProt O15379); experiment: HDAC3 degradation by quantitative western blotting in HCT116 cells
Experimental: (§11) Initially, each PROTAC was tested at 0.1, 1, and 10 μM in HCT116 cells for 24 h; then, cell extracts were prepared and evaluated for HDAC1/2 and 3 degradation by quantitative western blotting.
(§12) This cell line was incubated at 37 °C with 5% CO2.
(§13) HCT116 cells were seeded into 6-well plates (4 × 10^5 cells/well for 24 h, 2 × 10^5 cells/well for 48 h) for 24 h and then treated with DMSO or compounds at the indicated concentrations in fresh medium (5 mL total). After desired treatment time, the cells were harvested and then lysed in lysis buffer (50 mM Tris-HCl, 150 mM NaCl, 0.5% NP-40, 0.5% Triton X-100) supplemented with a protease inhibitor (Sigma, P8340). The suspension was incubated on ice for 30 min and centrifuged (18,000 rcf, 15 min, 4 °C); then, the supernatant was collected, and protein concentrations were quantified via Bradford Assay using Protein Assay Dye Reagent Concentrate (BIO-RAD). […] PageRuler Plus Prestained Ladder was used for size standards. After gel electrophoresis at 140 V for 90 min, the separated proteins were transferred onto a nitrocellulose membrane at 30 V for 60 min. The membranes were probed with primary antibodies (see the Supporting Information) for 60−90 min. Blots were developed with complimentary IRDye-conjugated secondary antibodies, and the bands were visualized using an Odyssey infrared imaging system. Image processing and band intensity quantification were performed using Image Studio Lite.

HDAC3-SMRT complex = target: T1, HDAC3-SMRT complex (Homo sapiens, UniProt O15379); experiment: Fluorescent HDAC assay with purified HDAC3-SMRT complex; format: biochemical; details: Boc-(Ac)Lys-AMC substrate
T1 construct: made in house
T1 sequence (O15379 whole entry): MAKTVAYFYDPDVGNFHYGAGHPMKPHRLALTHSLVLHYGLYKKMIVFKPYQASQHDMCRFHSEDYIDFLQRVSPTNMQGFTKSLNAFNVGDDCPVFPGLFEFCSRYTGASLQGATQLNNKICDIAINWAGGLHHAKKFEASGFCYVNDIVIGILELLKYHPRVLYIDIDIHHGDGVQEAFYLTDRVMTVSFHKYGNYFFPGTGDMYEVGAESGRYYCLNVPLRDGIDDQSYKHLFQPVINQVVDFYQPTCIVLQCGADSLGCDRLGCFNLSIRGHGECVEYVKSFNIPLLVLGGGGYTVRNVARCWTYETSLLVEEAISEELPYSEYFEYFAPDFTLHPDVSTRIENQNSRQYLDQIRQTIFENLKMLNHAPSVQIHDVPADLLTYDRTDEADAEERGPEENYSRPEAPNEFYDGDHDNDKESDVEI
T1 sequence (Q9Y618 389-480 partner limits assumed): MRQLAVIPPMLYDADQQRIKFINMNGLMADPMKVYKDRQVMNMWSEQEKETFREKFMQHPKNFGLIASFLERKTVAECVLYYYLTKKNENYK
Experimental: (§1) 2. In Vitro HDAC Assay with Class I HDAC Complexes
(§2) Histone Deacetylase Assay. Inhibition experiments against HDAC1-CoREST-LSD1, HDAC2-CoREST-LSD1 and HDAC3-SMRT-DAD were conducted using a fluorescent HDAC assay. The assays were carried out utilising a black 96-well plates (Corning) with a reaction volume of 50 µL. HDAC complexes were expressed and purified as described previously.1,2 100 µM of Boc- (Ac)Lys-AMC was used as a substrate in each well. All determinations were performed in triplicate. The inhibitors/PROTACs were dissolved at 50 mM in DMSO, and then further diluted with 10% DMSO HDAC assay buffer (10% DMSO, 50 mM Tris pH 7.5, 50 mM NaCl, 0.1 mg/mL BSA) to micromolar concentrations. 1:3 serial dilutions were then carried out using 10% DMSO HDAC assay buffer to afford range of concentrations. 10 µL of each of these solutions were […]
(§3) assay buffer (50 mM Tris pH 7.5, 50 mM NaCl, 0.1 mg/mL BSA). The plate was then incubated at 20 °C, 100 RPM for 1 hour. After incubation, 10 µL of the Boc-(Ac)Lys-AMC substrate, dissolved in HDAC assay buffer, was added to each well. […] Fluorescence intensity was determined […]
(§4) IC 50 values were calculated through the GraphPad Prism 7 software by non-linear regression, log (inhibitor) vs. response – variable slope […]

HDAC1 = HDAC1 (Homo sapiens, UniProt Q13547); experiment: HDAC1 degradation by quantitative western blotting in HCT116 cells
Chain of HDAC1 (Q13547 whole entry): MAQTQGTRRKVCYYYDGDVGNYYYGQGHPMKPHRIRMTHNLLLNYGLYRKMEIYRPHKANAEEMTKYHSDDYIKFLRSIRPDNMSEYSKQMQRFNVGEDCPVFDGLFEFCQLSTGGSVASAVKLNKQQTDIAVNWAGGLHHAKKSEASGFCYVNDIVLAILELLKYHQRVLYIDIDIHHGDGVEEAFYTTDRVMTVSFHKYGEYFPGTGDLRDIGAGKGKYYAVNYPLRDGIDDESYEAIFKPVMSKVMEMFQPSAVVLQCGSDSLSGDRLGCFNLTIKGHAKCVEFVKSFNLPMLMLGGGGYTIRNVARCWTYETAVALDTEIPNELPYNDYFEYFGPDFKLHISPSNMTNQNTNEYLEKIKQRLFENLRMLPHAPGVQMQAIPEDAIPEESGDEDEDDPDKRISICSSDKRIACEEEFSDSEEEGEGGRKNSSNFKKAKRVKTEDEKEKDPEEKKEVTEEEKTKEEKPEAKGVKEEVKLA
Experimental: as §11, §12, §13

HCT116 cells [1] = experiment: CellTiter-Glo 2.0 cell viability assay; format: cell-based, human
Experimental: CellTiter-Glo 2.0 Reagent (Promega UK Ltd, G9242) was equilibrated to room temperature and added to the wells in a ratio of 1 volume reagent:5 volumes medium. Background luminescence was determined using medium alone plus reagent. The plates were shaken on an orbital shaker for 2 min to induce cell lysis and then incubated in the dark at room temperature for 10 min to stabilize the luminescent signal. Luminescence was captured on a CLARIOstar plate reader (BMG Labtech Ltd, UK) at 22 °C to give relative luminescence units and analyzed using BMG Labtech software. EC50 values were calculated by nonlinear regression (Hill plot) and log (inhibitor) versus response—variable slopes (four parameters) using GraphPad Prism 9 software. Each compound dose response was repeated as four independent biological replicates (n = 4).

[2] = target: T2, HDAC1-CoREST-LSD1 complex (Homo sapiens, UniProt Q13547); experiment: Fluorescent HDAC assay with purified HDAC1-CoREST-LSD1 complex; format: biochemical; details: Boc-(Ac)Lys-AMC substrate
T2 construct: made in house
T2 sequence (Q13547 whole entry, other chains not shown): as the sequence (Q13547 whole entry) above
T2 sequence (Q9UKL0 86-485 partner limits assumed, other chains not shown): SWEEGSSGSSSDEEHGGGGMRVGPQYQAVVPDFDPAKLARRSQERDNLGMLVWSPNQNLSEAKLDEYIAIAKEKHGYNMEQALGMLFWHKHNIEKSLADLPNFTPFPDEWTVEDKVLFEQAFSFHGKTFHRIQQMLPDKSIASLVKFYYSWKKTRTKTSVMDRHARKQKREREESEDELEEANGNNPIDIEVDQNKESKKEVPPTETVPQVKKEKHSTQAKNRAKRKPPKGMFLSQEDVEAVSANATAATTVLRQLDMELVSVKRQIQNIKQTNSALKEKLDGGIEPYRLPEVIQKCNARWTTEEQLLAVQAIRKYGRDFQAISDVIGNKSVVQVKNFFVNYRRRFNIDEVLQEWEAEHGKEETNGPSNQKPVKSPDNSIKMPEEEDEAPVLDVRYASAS
Experimental: as §1, §2, §3, §4

HCT116 cells [3] = experiment: RNA-seq differential gene expression; format: cell-based, human; details: 10 μM, 24 h
Experimental: RNA-seq analysis was performed in HCT116 cells treated with PROTACs (JPS004, JPS014, JPS016, JPS035, and JPS036) for 24 h at 10 μM concentration. Total RNA was isolated using a Tri-reagent RNA miniprep kit (Zymogen; R2053), before RNA integrity, size, and purity were assessed using an Agilent Bioanalyzer. Library preparation and sequencing were performed by Novogene, using a NovaSeq 6000 PE150 platform at a read depth of 20 million. For bioinformatics analysis, see the Supporting Information. RNA-seq data from the study was deposited at the GEO database (GSE197985).
3. Apoptosis Flow Cytometry Assay
Figure S9. Apoptosis flow cytometry assay with 2.5 µM and 10 µM treatments of JPS016 and JPS016NC at 24 and 48 hours. Error bars represent the average of three independent biological replicates.
µM µM µM 5 µM µM µM µM µM µM µM
4. RNA Seq – Bioinformatics Analysis
Paired-end reads were aligned using HISAT2 (v2.2.1) and mapped to the HISAT2 GRCh38_tran index build.3 Quality control was performed on raw and aligned data using FASTQC (v0.11.9) and summarised using MultiQC (v1.11).4,5 The resulting SAM files were subsequently sorted and converted to the BAM format before indexing with SAMtools (v 1.12).6 Reads were then counted across the exons of each gene and gene loci annotated using command-line program LiBiNorm (v2.4); run in HT-Seq compatibility mode (-z) and provided with the ‘Homosapiens.GRCh38.104’ GTF file obtained from Ensembl. LiBiNorm was run using the following parameters: LiBiNorm count -z -r pos -i gene_name -s reverse <BAM file> Homo_sapiens.GRCh38.104.gtf <OUTPUT file>.7 Default normalisation of expression values and differential gene analysis was then carried out using the R package DESeq2.8 Significance thresholds were set as a p-adjusted value < 0.01 and a fold change > 2 (log2 fold change > 1) and implemented for down-stream analysis, with all plots produced in R. Gene ontology (GO) analysis was carried out using the Bioconductor package topGO using the human genome-wide annotation package to map gene identifiers to the relevant org.Hs.eg.db […]

H3K56ac = experiment: Histone H3 Lys 56 acetylation (H3K56ac) western blotting; format: cell-based, human; details: HCT116 cells, 24 h, screen at 0.1, 1, 10 μM; relative to DMSO, CI-994 and 1 at 10 μM
Description: (§5) Supporting Information: Biology
(§6) Representative blots of two independent biological replicates.

HDAC2 = HDAC2 (Homo sapiens, UniProt Q92769); experiment: HDAC2 degradation by quantitative western blotting in HCT116 cells; parameters: Dmax: dose or concentration left out as unconfirmed; details: for HDAC2 degradation in initial screen (in words): HCT116 cells, 24 h, 0.1, 1 and 10 μM, compared with 1 at 10 μM
Chain of HDAC2 (Q92769 whole entry): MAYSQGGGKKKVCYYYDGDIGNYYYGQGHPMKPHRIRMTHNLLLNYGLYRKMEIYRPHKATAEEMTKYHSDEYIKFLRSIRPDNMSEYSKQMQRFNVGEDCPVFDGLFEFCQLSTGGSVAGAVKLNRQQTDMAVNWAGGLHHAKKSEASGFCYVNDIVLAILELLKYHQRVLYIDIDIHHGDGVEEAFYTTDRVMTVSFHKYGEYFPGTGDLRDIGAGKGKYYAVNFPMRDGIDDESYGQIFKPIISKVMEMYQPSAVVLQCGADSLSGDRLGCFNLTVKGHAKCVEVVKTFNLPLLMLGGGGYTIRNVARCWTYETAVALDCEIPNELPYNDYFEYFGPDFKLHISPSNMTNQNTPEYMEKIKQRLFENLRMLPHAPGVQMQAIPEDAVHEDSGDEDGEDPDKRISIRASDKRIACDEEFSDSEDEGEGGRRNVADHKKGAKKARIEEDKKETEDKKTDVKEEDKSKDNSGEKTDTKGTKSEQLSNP
Experimental: as §11, §12, §13

[4] = target: T3, HDAC2-CoREST-LSD1 complex (Homo sapiens, UniProt Q92769); experiment: Fluorescent HDAC assay with purified HDAC2-CoREST-LSD1 complex; format: biochemical; details: Boc-(Ac)Lys-AMC substrate
T3 construct: made in house
T3 sequence (Q92769 whole entry, other chains not shown): as the sequence (Q92769 whole entry) above
T3 sequence (Q9UKL0 86-485 partner limits assumed, other chains not shown): as the sequence (Q9UKL0 86-485 partner limits assumed, other chains not shown) above
Experimental: as §1, §2, §3, §4

SIN3A = SIN3A protein levels by western blotting; format: cell-based, human; details: HCT116 cells, 10 μM, after 24 h
Experimental: as §5, §6
(§7) Figure S6. Representative Western blot of HDAC1/2/3 levels after 24 hours and 48 hours with 1
(§8) (JPS004), 7 (JPS014) and 9 (JPS016), and bar graph representation of HDAC1-3, LSD1 and Sin3a
(§9) protein levels after 24 hours and 48 hours as the average of three independent biological replicates.
(§10) (also on this page, place not known: HDAC1 24hHDAC2 24hHDAC3 24hHDAC1 48hHDAC2 48hHDAC3 %Protein Levels Remaining (Relative to DMSO) %Protein Levels Remaining (Relative to DMSO))

LSD1 = LSD1 protein levels by western blotting; format: cell-based, human; details: HCT116 cells, after 48 h
Experimental: as §5, §6, §7, §8, §9, §10

HCT116 cells [5] = experiment: Apoptosis flow cytometry assay (sub-G1 population); format: cell-based, human; details: 10 μM
Experimental: HCT116 cells were seeded (5 × 10^5 cells/plate) into 6 cm tissue culture plates for 24 h and then treated with 10 μM compounds (with 0.1% DMSO vehicle) or 0.1% DMSO control in fresh medium (5 mL total). The cells were then exposed to the compounds (10 μM) for 24 or 48 h. To harvest the cells, the medium was transferred from each sample plate to 15 mL centrifuge tubes. Each well was washed with 1 mL of phosphate-buffered saline (PBS) and the PBS was transferred to the corresponding 15 mL centrifuge tube. The plates were trypsinized, 2 mL of medium was added, and the cells and medium were transferred to the corresponding 15 mL centrifuge tubes. The harvested cells were pelleted by centrifugation (200g, 5 min, 4 °C), washed with 1 mL PBS, and then pelleted again by centrifugation (200g, 5 min, 4 °C). The supernatant was discarded, and the pellets resuspended in 1 mL of 70% ethanol (ice-cold) to fix the cells. Samples were stored at 4 °C and analyzed within two weeks. PBS (1 mL) was added to each sample tube containing cells fixed in 70% ethanol. The cells were pelleted by centrifugation (200g, 5 min, 4 °C), and the PBS wash was repeated. The supernatant was discarded, and the pellet was resuspended in 50 μL of RNase A (1 μg/mL, Thermo Scientific, EN0531) and left at room temperature for 10 min to digest contaminating RNA. A total of 500 μL of PI stain (50 μg/mL, Invitrogen, P3566) was added to each tube, and the tubes were incubated in the dark, at room temperature, for 30 min. Results were acquired on a BD FACSCanto II flow cytometer and analyzed using BD FACSdiva software. Sub-G1 population was calculated as a percentage of total cell population. Two independent biological replicates were performed.

[6] = p-adjusted < 0.01, log2 fold change > 1

Chain of HDAC3 (O15379 whole entry): as the sequence (O15379 whole entry) above
Chain of HDAC3 (Q9Y618 389-480 partner limits assumed): as the sequence (Q9Y618 389-480 partner limits assumed) above

Dmax (HDAC3; HCT-116, read-out: Dmax HDAC3) [%]	IC50 (HDAC3-SMRT complex) [µM]	Dmax (HDAC1; HCT-116, read-out: Dmax HDAC1) [%]	IC50 [2] [µM]	Dmax (HDAC2; HCT-116, read-out: Dmax HDAC2) [%]	IC50 [4] [µM]	EC50 (HCT116 cells [1]; Homo sapiens, HCT-116, 48 h, 48 h) [µM]	Dmax (HDAC2; HCT-116, read-out: Dmax HDAC2 in time course) [%]	Structure (SMILES)	HDAC3 dose-response behaviour (hook effect) (HDAC3; HCT116 cells, 24 h, 0.01-10 μM)	HDAC1 degradation in initial screen (in words) (HDAC1; HCT116 cells, 24 h, 0.1, 1 and 10 μM, compared with 1 at 10 μM)	Effect on cell viability (in words) (HCT116 cells [1]; CellTiter-Glo and flow cytometry)	Fold less DEGs (HCT116 cells [3]; compared with the more potent degraders)	H3K56ac levels (in words) (H3K56ac)	HDAC2 degradation in initial screen (in words) (HDAC2)	SIN3A levels (abundance) (SIN3A) [% abundance]	LSD1 levels (LSD1)	Number of downregulated DEGs (HCT116 cells [3]; [6])	Number of upregulated DEGs (HCT116 cells [3]; [6])	Percentage of cells in sub-G1 phase (in words) (HCT116 cells [5]; after 24 h)	Percentage of cells in sub-G1 phase (in words) (HCT116 cells [5]; after 48 h)
76	3.81 ± 0.79	68	1.81 ± 0.54	49	3.46 ± 0.78	–	–	CC(=O)N[C@H](C(=O)N1C[C@H](O)C[C@H]1C(=O)NCc1ccc(-c2scnc2C)cc1OCCCCCCCCCCCC(=O)Nc1ccc(C(=O)Nc2ccccc2N)cc1)C(C)(C)C [Compound 21, (2S,4R)-1-((S)-2-Acetamido-3,3-dimethylbutanoyl)-N-(2-((12-((4-((2-aminophenyl)carbamoyl)phenyl)amino)-12-oxododecyl)oxy)-4-(4-methylthiazol-5-yl)benzyl)-4-hydroxypyrrolidine-2-carboxamide]	exhibit a standard dose response curve for HDAC3	comparable HDAC1 and HDAC2 degradation to 1	little effects on cell viability	approximately 10 fold	increased H3K56ac levels significantly but not to the same levels as 1	comparable HDAC1 and HDAC2 degradation to 1	–	–	–	–	–	–
–	–	–	–	45	–	5.2 ± 0.6	51	Cc1ncsc1-c1ccc(CNC(=O)[C@@H]2C[C@@H](O)CN2C(=O)[C@@H](NC(=O)COCCCCCCCCCOCC(=O)Nc2ccc(C(=O)Nc3ccccc3N)cc2)C(C)(C)C)cc1 [Compound 9, (2S,4R)-1-((S)-2-(2-((9-(2-((4-((2-Aminophenyl)carbamoyl)-phenyl)amino)-2-oxoethoxy)nonyl)oxy)acetamido)-3,3-dimethylbutanoyl)-4-hydroxy-N-(4-(4-methylthiazol-5-yl)benzyl)-pyrrolidine-2-carboxamide]	–	–	–	–	increased H3K56ac levels to the same levels as CI-994	marginally increased compared to 1 at 10 μM	60	approximately 40 % of controls	1477	2464	highest percentage of cells in the sub-G1 phase	highest percentage of cells in the sub-G1 phase
